Test results: patent publication US11541065B2, “Compositions and methods for treating brain injury” (UNM RAINFOREST INNOVATIONS, priority 2018, dated 2023)

Tests used:
[1] = Total plasma homocysteine after osmotic pump implantation, rats (HPLC); assay type: in vivo; conditions: male, Wistar, rat, sc, 200 mM solution (2 ml osmotic pump, flow rate 10 μl/hr), subcutaneous osmotic pump with 200 mM L-homocysteine
Method: L-homocysteine (200 mM) was freshly prepared by alkali hydrolysis of L-homocysteine thiolactone hydrochloride followed by neutralization, and maintained in 0.02 mM of N-Tris(hydroxymethyl)methyl-2-aminoethanesulfonic acid buffer pH 7.4 as previously described (Poddar et al., 2001, Circulation, 103:2717-2723). Osmotic pumps (Alzet, 2ML1, flow rate 10 μl/hr; Durect Corp., Cupertino, Calif.) containing either 2 ml of freshly prepared 200 mM L-homocysteine (for hyperhomocysteinemia) or normal saline (for control) were surgically implanted subcutaneously on the back and posterior to the scapulae of male Wistar rats under anesthesia (2% isoflurane in medical grade oxygen). The incision was closed after implantation and the rats were allowed to recover in their cage. For both WT and GluN2A-KO mice, osmotic pumps (Alzet, 2001, flow rate 1 μl/hr; Durect Corp., Cupertino, Calif.) containing either 200 μl of freshly prepared 200 mM L-homocysteine (for hyperhomocysteinemia) or normal saline (for control) were implanted similarly.
Blood was obtained from rats (retro-orbital) and mice (cardiac puncture) under anesthesia with 2% isoflurane in medical grade oxygen, before installation of osmotic pumps (0 day) and at various time points after installation of osmotic pumps (rats: day 3, day 5, and day 7; mice: day 3 and day 5). Blood was collected in standardized VACUTAINER venous blood collection EDTA-tubes (ThermoFisher Scientific, Inc., Waltham, Mass.) and centrifuged at 3,500 rpm for 15 minutes. The plasma obtained was analyzed for total plasma homocysteine levels using high performance liquid chromatography with post-column fluorescence detection as previously described (Gilfix et al., 1997, Clin Chem 43:687-688; Jacobsen et al., 1994, Clin Chem 40:873-881; Miller et al., 2013, Am J Clin Nutr 97:827-834).

[2] = system: rat cortical neuron cultures; test: OGD / re-oxygenation cell death, Hoechst DNA staining; assay type: cell-based; conditions: OGD two hours in the presence of homocysteine 50 μM, re-oxygenation 22 hours, vs OGD alone
Method: At specified time periods (one hour, two hours, and three hours) during OGD alone or OGD in the presence of L-Hcy (50 μM), cells were removed from the chamber and lysed for immunoblot analysis. Some cultures were treated with L-Hcy (three hours) during the OGD insult in the presence or absence of NVP-AAM077 (30 nM; 3 h). […] Cells were then subjected to staining with Hoechst 33342 dye for 15 minutes, washed extensively with PBS, and analyzed using fluorescent microscopy to assess nuclear damage. To quantitatively assess the percentage of pyknotic nuclei, a total of 1000 cells were counted for each set of experiments (Poddar et al., 2010, J Neurochem 115, 1350-1362).

[3] = system: COX2; test: COX2 protein level in WT and GluN2A-KO mouse neuronal cultures (immunoblot); assay type: cell-based, mice; conditions: L-homocysteine 50 μM, four hours
Method: Equal protein from total cell lysates obtained from rat and mice neuronal cultures were resolved in 7.5% SDS-PAGE, and subjected to immunoblotting procedure as described earlier (Poddar and Paul, 2009, J Neurochem 110:1095-1106). Blots were analyzed with antibodies as described in each experiment. All primary antibodies (anti-COX2, anti-B-tubulin) and secondary-horse radish peroxidase conjugated antibody concentrations were used according to recommendations provided by the manufacturer. Signals from immune complexes in the blots were developed using West Pico supersignal chemiluminescence reagents and then captured on X-ray films. Densitometric analysis of the images was performed using the Image J software.
Rat and mice neuronal cultures were washed with PBS (pH 7.4), containing sodium pyrophosphate and sodium vanadate as phosphatase inhibitors, and harvested in SDS sample buffer (Laemmli, 1970, Nature 227:680-685). Equal protein from total cell lysates, estimated using BCA kit, was resolved by SDS-PAGE (7.5%) followed by western blotting on PVDF membranes. Immunoblot analysis was performed by first blocking with 5% non-fat dry milk for 1 h at room temperature followed by incubation with either COX2 immunoblot analysis (Poddar and Paul, 2009, J Neurochem 110:1095-1106) as described in each experiment. […]

[4] = system: PGE2; test: PGE2 release from WT and GluN2A-KO mouse neuronal cultures; assay type: cell-based, mice; conditions: homocysteine 50 μM, four hours
Method: Neuron cultures were treated with or without L-homocysteine in the presence or absence of pharmacological inhibitors for the time period specified in each experiment. The medium was collected from each experimental plate and centrifuged at 1000 rpm for five minutes to remove cellular debris. Equal amounts (100 μl) of the supernatant from each sample were used to determine the amount of PGE2 using the PGE2 enzyme immunoassay kit according to the manufacturer's instructions. For measurement of cPLA2 activity, the neuronal cells from the above treated conditions were harvested in ice-cold Tris-buffered saline (pH7.4) containing sodium pyrophosphate as phosphatase inhibitor, sonicated three times with five-second bursts and two minutes on ice between intervals. The lysed cell suspensions were centrifuged at 10,000 rpm for 10 minutes and the supernatant removed. Equal amounts of protein from the supernatant (assessed using BCA protein estimation kit) were estimated for activity of cPLA2 using cPLA2 activity assay kit according to the manufacturer's protocol.
For measurement of PGE2 levels and MCP-1 levels released from neurons, culture medium was collected from each experimental plate and centrifuged at 1000 rpm for five minutes to remove cellular debris. […]

[5] = system: hyperhomocysteinemic rats subjected to MCAO; test: Accelerated Rotarod test after MCAO; assay type: in vivo, male Wistar rats; conditions: HHcy rats, day 8 post MCAO, NVP-AAM077 1.2 mg/kg; untreated HHcy 96.99±4.11 sec
Method: All rats were subjected to a battery of behavioral tests on day 7 (CatWalk), day 8 (cylinder and rotarod tests) and day 9 (adhesive test) after MCAO to evaluate normal gait, motor coordination and sensory motor functions. Habituation and training (3 days) was performed for one week before MCAO. The first two trainings days were before osmotic pump implantation and the third training day was after pump implantation. An experienced observer blinded to the experimental conditions evaluated all behavioral parameters.
Accelerated Rotarod test: Control, hyperhomocysteinemic and NVP-AAM077 treated hyperhomocysteinemic rats were subjected to the accelerated Rotarod test to evaluate impairment of motor co-ordination and balance following stroke (Bouet et al., 2007, Exp Neurol 203:555-567; Schaar et al., 2010, Exp Transl Stroke Med 2:13). Rats were placed on a rotating cylindrical rod accelerating from 0 to 50 rpm for a period of 180 seconds, and their latency to fall was recorded. The mean of four runs (10 min rest between trials) was used for statistical analysis. One hyperhomocysteinemic rat was excluded from the study as the rat jumped off the rod repeatedly.

Compound	concentration at 3 day ([1]; day 3, basal 8.8±0.76 μM, read-out: total plasma homocysteine level)	concentration at 5 day ([1]; day 5, read-out: total plasma homocysteine level)	concentration at 7 day ([1]; day 7, read-out: total plasma homocysteine level)	OGD-induced cell death [2]	COX2 protein level ([3]; GluN2A-KO mice cultures)	COX2 protein level ([3]; WT mice cultures)	PGE2 release ([4]; GluN2A-KO mice cultures)	PGE2 release ([4]; WT mice cultures)	latency to fall from accelerated rotarod [5]
N[C@@H](CCS)C(=O)O [L-homocysteine]	23.2 ± 0.52 µM	23.6 ± 0.57 µM	20.5 ± 0.88 µM	increases by two-fold	fails to augment COX2 protein expression	leads to increase in COX2 protein level	fails to induce PGE2 release	significantly increases PGE2 release	
C[C@H](NC(c1cccc2[nH]c(=O)c(=O)[nH]c12)P(=O)(O)O)c1ccc(Br)cc1 (stereo partly drawn) [NVP-AAM077, ({[(1S)-1-(4-bromophenyl)ethyl]amino}-(2,3-dioxo-1,4-dihydroquinoxalin-5-yl)methyl)phosphonic acid]									112.51 ± 4.9 s
